In article PMC11555678, “Improved Broad Spectrum Antifungal Drug Synergies with Cryptomycin, a Cdc50-Inspired Antifungal Peptide” (ACS Infectious Diseases, 2024):
In brackets after ≈: the same amount, converted by molar mass. Square brackets hold non-standard residues; d marks the D form. Peptide text beside a SMILES is read from it. * marks the point of attachment. Myristoyl = CCCCCCCCCCCCCC(=O)*; Orn = NCCC[C@H](N)C(=O)O

How the values were obtained:
C. neoformans H99 [1] = details: Cn wild-type, previous study; cited from earlier work
Cn Crm1-oe = test: microbe, parasite or virus in culture; assay type: cell-based, Cryptococcus neoformans; details: 48 h, 37 °C
Procedure: (§1) Previous studies have shown that modifying microbiological media with salts such as CaCl2 can have a drastic effect on the growth of fungi and their responses to antifungals.[19],[35] In the case of CaCl2, the divalent cation, Ca^2+, is involved in fungal cell stress response. To understand how the peptide activity may involve calcium and stress response, the MICs of KKOO, KKOO-NH2, FLC, and CAS were assessed as a function of the calcium concentration in liquid YPD media. It was observed that calcium enrichment completely desensitized the wild-type strain to KKOO and KKOO-NH2, Tables 7 and 8, respectively. Effects of calcium enrichment on the susceptibility of Cryptococcus to CAS similar to literature values were recorded, Supporting Information, Table S7.[35]
(§2) All microdilution assays with fungi were carried out in accordance with CLSI protocols from M27 for yeasts and M38 for filamentous fungi, respectively, unless otherwise specified.[64],[65] Briefly, 96-well plates were charged with RPMI1640 media, with operating volume in the first column, 200 μL, and half operating volume, 100 μL, in the remaining wells. Drug stock solution in DMSO was aliquoted into the first well in each row. Half of the volume in the dosed well was serially diluted 2-fold until column 11. Column 11 was used as the negative growth control, and column 12 was used as the positive growth control. ON yeast cultures in YPD were washed twice in DD-H2O, resuspended in PBS, and adjusted to 5000 cfu/mL in RPMI. The 96-well plate was inoculated with 100 μL aliquots of cell suspension per well. Plates were incubated at 37 °C for 2 days.

Cn crm1Δ = test: microbe, parasite or virus in culture; assay type: cell-based, Cryptococcus neoformans; details: 48 h, 37 °C
Procedure: as §1, §2

Cn apt1Δ = test: microbe, parasite or virus in culture; assay type: cell-based, Cryptococcus neoformans; details: for MIC: 48 h, 37 °C
Procedure: as §1, §2

C. neoformans MRL862 = details: cited from earlier work
Procedure: First, the MICs of the peptides and commonly used antifungal drugs were assessed on their own. A full accounting of MICs of intermediate SAR screen peptides is reported in Supporting Information, Table S1.

C. neoformans H99 [2] = assay type: cell-based, Cryptococcus neoformans; details: 2× MIC, by 2 h, no rebound by 8 h; RPMI1640, 30 °C, 225 rpm, 2 million cfu/mL
Procedure: Culture tubes were prepared with aliquots of 2.0 mL of RPMI1640 (containing Q, MOPS, pH = 7, no phenol red). The tubes were sealed to prevent evaporation and were equilibrated with the incubation chamber overnight, at 30 °C. On the day of the experiment, overnight yeast cultures in YPD were washed twice with DD-H2O and resuspended in DD-H2O. The OD600 of the cell suspension was adjusted to 4.6, ≈2 × 10^6 cfu/mL, in DD-H2O. A 200 μL aliquot of adjusted cell suspension was added systematically to each tube, followed by 200 μL sampling for the 0 h time point. Immediately after sampling, the antifungal compounds were added, and the tubes were placed in the incubator at 30 °C with shaking at 225 rpm. The sampled aliquot was transferred to a 96-well plate and serially diluted six times, 10-fold each time. The resulting cell suspensions were spotted onto YPD plates in a grid pattern of 5 μL per spot. Subsequently, tubes were briefly removed from the incubator, and 100 μL aliquots were sampled at 2, 4, 6, and 8 h time points. Cells were counted on the YPD plates at either 24 or 48 h after plate spotting, depending on when the colonies were countable. Images of the YPD plates were recorded on the Bio-Rad Gel imager after 48 h of incubation at 30 °C. […] 2 C = number of colonies counted, Df = dilution factor = 10^n–1, n = column that the cells were counted, and Vf = volume factor = 1/0.005 mL.

[3] = system: C. neoformans H99 and cdc50Δ; test: Intracellular calcium measurement (Fluo-3AM, flow cytometry); assay type: cell-based, Cryptococcus neoformans; details: YPD, remained elevated for the 60 min time course
Procedure: Intracellular calcium measurement was carried out in accordance with previously reported methodologies.[35] Yeast cells were sub cultured ON in YPD, and the next day cells were washed twice in D-Hanks (0.4 g/Liter KCl, 0.06 g/Liter KH2PO4, 8.0 g/Liter NaCl, 0.35 g/Liter NaHCO3, 0.06 g/Liter Na2HPO4·7H2O) and adjusted to 1 × 10^7 cfu/mL in 5 mL D-Hanks. Fluo-3-AM stock solution in DMSO was diluted 1000-fold to operating stain concentration of 10 μM. Cells were stained in the dark for 30 min at 37 °C, 225 rpm, in a 12 mL culture tube. Stained cells were washed three times in D-Hanks and resuspended into a minimal amount of YPD or calcium-enriched YPD required to inoculate each condition. Each condition was prepared with three technical replicates. After inoculating 1 mL YPD with 0.2 mL cell suspension, 0.2 mL was aliquoted into a flow tube for the 0 min time point. The flow tube was placed on ice until flow analysis. […] To allow for sample processing for each time point, each set of replicates was inoculated and treated about 2 min apart. Subsequent 0.2 mL aliquots were drawn at 12, 24, 36, and 60 min for flow analysis. Live cells were analyzed using BD FACS via 100,000 events were collected, and singlets were gated for each sample. The mean fluorescence of the singlets was recorded and plotted as a function of […].

[4] = Cryptococcus neoformans, CRM1OE, YPD + 0 mM Ca2+
[5] = Cryptococcus neoformans, CRM1OE, YPD + 2.5 mM Ca2+
[6] = Cryptococcus neoformans, CRM1OE, YPD + 5 mM Ca2+
[7] = Cryptococcus neoformans, CRM1OE, YPD + 10 mM Ca2+
[8] = Cryptococcus neoformans, CRM1OE, YPD + 20 mM Ca2+
[9] = Cryptococcus neoformans, YPD + 0 mM Ca2+
[10] = Cryptococcus neoformans, YPD + 2.5 mM Ca2+
[11] = Cryptococcus neoformans, YPD + 5 mM Ca2+
[12] = Cryptococcus neoformans, YPD + 10 mM Ca2+
[13] = Cryptococcus neoformans, YPD + 20 mM Ca2+

Compound	MIC (Cn Crm1-oe; [4])	MIC (Cn Crm1-oe; [5])	MIC (Cn Crm1-oe; [6])	MIC (Cn Crm1-oe; [7])	MIC (Cn Crm1-oe; [8])	MIC (Cn crm1Δ; [9])	MIC (Cn crm1Δ; [10])	MIC (Cn crm1Δ; [11])	MIC (Cn crm1Δ; [12])	MIC (Cn crm1Δ; [13])	MIC (Cn apt1Δ; [9])	MIC (Cn apt1Δ; [10])	MIC (Cn apt1Δ; [11])	MIC (Cn apt1Δ; [12])	MIC (Cn apt1Δ; [13])	also measured
CC[C@H](C)C[C@H](C)CCCCCCCCC(=O)N[C@H]1C[C@@H](O)[C@@H](NCCN)NC(=O)[C@@H]2[C@@H](O)CCN2C(=O)[C@H]([C@H](O)CCN)NC(=O)[C@H]([C@H](O)[C@@H](O)c2ccc(O)cc2)NC(=O)[C@@H]2C[C@@H](O)CN2C(=O)[C@H]([C@@H](C)O)NC1=O [CAS, caspofungin]	8 µg/mL	32 µg/mL	32 µg/mL	128 µg/mL	128 µg/mL	8 µg/mL	32 µg/mL	32 µg/mL	64 µg/mL	> 128 µg/mL	8 µg/mL	16 µg/mL	32 µg/mL	32 µg/mL	64 µg/mL	MIC (C. neoformans H99 [1]): 16 µg/mL (≈ 14.6 µM)
OC(Cn1cncn1)(Cn1cncn1)c1ccc(F)cc1F [FLC, fluconazole]	1 µg/mL	2 µg/mL	2 µg/mL	2 µg/mL	2 µg/mL	4 µg/mL	4 µg/mL	4 µg/mL	8 µg/mL	8 µg/mL	0.25 µg/mL	0.5 µg/mL	1 µg/mL	0.5 µg/mL	0.5 µg/mL	MIC, reported value (C. neoformans MRL862): 128 µg/mL (≈ 418 µM)
CCCCCCCCCCCCCC(=O)N[C@@H](Cc1c[nH]c2ccccc12)C(=O)NCC(=O)NCC(=O)N[C@H](C(=O)N[C@@H](CCCN)C(=O)N[C@@H](CCCN)C(=O)N[C@@H](CC(N)=O)C(=O)N[C@@H](Cc1ccc(O)cc1)C(=O)N[C@@H](C)C(N)=O)[C@@H](C)CC [KKOO-NH2] (Myristoyl-WGGI[Orn][Orn]NYA-NH2)	–	–	–	–	–	–	–	–	–	–	–	–	–	–	–	Cryptococcus cells killed (C. neoformans H99 [2]): > 99.9%; time to difference in intracellular calcium signaling vs untreated cells [3]: ≤ 12 min; MIC (Cn Crm1-oe; YPD + 0 mM Ca2+): 4 µg/mL; MIC (Cn crm1Δ; YPD + 0 mM Ca2+): 4 µg/mL; MIC (Cn apt1Δ; YPD + 0 mM Ca2+): 4 µg/mL; increase of MIC (Cn apt1Δ; YPD +0 to +20 mM CaCl2): 32 fold; MIC (Cn apt1Δ; YPD + 2.5 mM Ca2+): 16 µg/mL; MIC (Cn apt1Δ; YPD + 5 mM Ca2+): 64 µg/mL; MIC (Cn apt1Δ; YPD + 10 mM Ca2+): 64 µg/mL
